{"source": "paper PMC4176160", "about": "“Characterization of three mycobacterial DinB (DNA polymerase IV) paralogs highlights DinB2 as naturally adept at ribonucleotide incorporation” (Nucleic Acids Research, 2014)", "molecular_target": "T1, DinB2 (MsmDinB2) (Mycolicibacterium smegmatis, UniProt A0QR77)", "T1 construct": "gene dinB; full-length 356 aa, 39 kDa, monomer; expressed in E. coli BL21(DE3) as His10Smt3 fusion, tag removed with Ulp1", "T1 sequence (A0QR77 entry or part of it)": "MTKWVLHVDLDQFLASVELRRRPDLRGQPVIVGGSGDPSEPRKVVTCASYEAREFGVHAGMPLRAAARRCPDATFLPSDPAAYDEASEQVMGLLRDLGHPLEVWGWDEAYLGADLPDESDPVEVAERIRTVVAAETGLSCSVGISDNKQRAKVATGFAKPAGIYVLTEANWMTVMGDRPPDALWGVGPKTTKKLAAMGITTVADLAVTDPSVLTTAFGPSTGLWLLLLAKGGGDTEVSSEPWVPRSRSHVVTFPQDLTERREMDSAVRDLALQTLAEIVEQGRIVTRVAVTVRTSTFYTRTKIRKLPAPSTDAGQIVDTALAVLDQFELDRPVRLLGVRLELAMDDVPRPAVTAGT", "experiment": "primer extension, kobs of first nucleotide addition vs nucleotide concentration, hyperbolic fit", "format": "biochemical", "settings": "5 mM MgCl2, 10 mM Tris-HCl pH 7.5, 37 °C, 1 μM enzyme, read-out: apparent Kd", "key": {"[1]": {"settings": "50 nM 13-mer/18-mer DNA primer-template with dT as first template base"}, "[2]": {"settings": "50 nM 13-mer/18-mer DNA primer-template with dG as first template base"}, "[3]": {"settings": "50 nM 13-mer/18-mer DNA primer-template with dC as first template base"}, "[4]": {"settings": "50 nM 13-mer/18-mer DNA primer-template with dA as first template base"}}, "note": "Read-outs that look alike come from different tables or passages of the source.", "data": [{"smiles": "Nc1ncnc2c1ncn2[C@@H]1O[C@H](COP(=O)(O)OP(=O)(O)OP(=O)(O)O)[C@@H](O)[C@H]1O", "note": "[ATP]", "values": [{"measurement": "Kd", "setting": "[1]", "result": 66, "unit": "µM"}]}, {"smiles": "Nc1ccn([C@@H]2O[C@H](COP(=O)(O)OP(=O)(O)OP(=O)(O)O)[C@@H](O)[C@H]2O)c(=O)n1", "note": "[CTP]", "values": [{"measurement": "Kd", "setting": "[2]", "result": 44, "unit": "µM"}]}, {"smiles": "Nc1nc2c(ncn2[C@@H]2O[C@H](COP(=O)(O)OP(=O)(O)OP(=O)(O)O)[C@@H](O)[C@H]2O)c(=O)[nH]1", "note": "[GTP]", "values": [{"measurement": "Kd", "setting": "[3]", "result": 22, "unit": "µM"}]}, {"smiles": "O=c1ccn([C@@H]2O[C@H](COP(=O)(O)OP(=O)(O)OP(=O)(O)O)[C@@H](O)[C@H]2O)c(=O)[nH]1", "note": "[UTP]", "values": [{"measurement": "Kd", "setting": "[4]", "result": 411, "unit": "µM"}]}, {"smiles": "Nc1ncnc2c1ncn2[C@H]1C[C@H](O)[C@@H](COP(=O)(O)OP(=O)(O)OP(=O)(O)O)O1", "note": "[dATP]", "values": [{"measurement": "Kd", "setting": "[1]", "result": 0.85, "unit": "µM"}]}, {"smiles": "Nc1ccn([C@H]2C[C@H](O)[C@@H](COP(=O)(O)OP(=O)(O)OP(=O)(O)O)O2)c(=O)n1", "note": "[dCTP]", "values": [{"measurement": "Kd", "setting": "[2]", "result": 1.5, "unit": "µM"}]}, {"smiles": "Nc1nc2c(ncn2[C@H]2C[C@H](O)[C@@H](COP(=O)(O)OP(=O)(O)OP(=O)(O)O)O2)c(=O)[nH]1", "note": "[dGTP]", "values": [{"measurement": "Kd", "setting": "[3]", "result": 0.87, "unit": "µM"}]}, {"smiles": "Cc1cn([C@H]2C[C@H](O)[C@@H](COP(=O)(O)OP(=O)(O)OP(=O)(O)O)O2)c(=O)[nH]c1=O", "note": "[dTTP]", "values": [{"measurement": "Kd", "setting": "[4]", "result": 8, "unit": "µM"}]}]}
